Experimental data as given in patent US10913781B2, “Pepducin design and use” (Tufts Medical Center, Inc., priority 2011, dated 2021).
Like-named read-outs stand apart in the source and are kept apart here. Peptide text beside a SMILES is read from it. * marks the point of attachment. Palmitoyl = CCCCCCCCCCCCCCCC(=O)*

Legend:
[1] = test system: A549 xenografts; assay type: in vivo, mouse; details: mouse, in vivo
Experimental: (§1) FIG. 13 illustrates that monotherapy with PAR1-i3 pepducins inhibits tumor progression of A549 xenografts. (A) and (B): A549 mice treated with vehicle, P1pal-7, P1pal-i1-11, P1pal-10S, X1/2-i1, X1/2-i3, or Avastin. Each time point represents the mean±SE. (C): Final tumor volume at the completion of the experiment was calculated as a percentage of untreated vehicle control. (D): Serum-starved A549 adenocarcinoma cells were pretreated with P1pal-7, P1pal-10S, P1pal-i1-11, vehicle, or PD98059 and stimulated with thrombin. VEGF production was assessed by enzyme-linked immunosorbent assay. Data are expressed as mean±SD (*P<0.05, **P<0.01).
PAR1 expression level is correlated with reduced survival of patients with NSCLC. To define the relative importance of PAR1 in lung tumor progression, in vivo mouse models were used. […] An A549 lung adenocarcinoma xenograft model in nude mice was used to evaluate monotherapy with P1pal-7, P1pal-10S, P1pal-i1-11, or the VEGF antagonist Avastin.

[2] = target: T1, PAR1 (Homo sapiens, UniProt P25116); assay: ERK1/2 phosphorylation in A549 cells (thrombin or […]), Western blot; assay type: cell-based; design: endogenous in cells; host or cells: A549, HOP62, H1299, H522, H226, HOP92 lung carcinoma lines
T1 sequence (P25116 22-425): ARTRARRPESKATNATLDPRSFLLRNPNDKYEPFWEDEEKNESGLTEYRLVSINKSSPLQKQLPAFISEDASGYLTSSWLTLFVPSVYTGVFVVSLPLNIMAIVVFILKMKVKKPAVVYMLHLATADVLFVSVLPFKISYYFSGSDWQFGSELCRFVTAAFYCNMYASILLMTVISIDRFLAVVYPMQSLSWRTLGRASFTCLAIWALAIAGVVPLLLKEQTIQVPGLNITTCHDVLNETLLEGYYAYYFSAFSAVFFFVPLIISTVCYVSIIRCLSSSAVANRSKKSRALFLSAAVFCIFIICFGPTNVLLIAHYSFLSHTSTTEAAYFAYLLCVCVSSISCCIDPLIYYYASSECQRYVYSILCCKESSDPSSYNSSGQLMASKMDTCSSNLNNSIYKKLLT
Experimental: FIG. 9 illustrates that differential inhibition of PAR1-ERK activation by i3- and i1-derived PAR1 pepducins. (A-C): Western blots of lysates from A549 cells untreated, or treated with thrombin, SLIGKV (SEQ ID NO:29), or AYPGKF (SEQ ID NO:5). Indicated samples were pretreated with various concentrations (0.1 to 3 μmol/L) of P1pal-7, P1pal-10S, or P1pal-i1-11 before stimulation and immunoblotted with anti-phospho-ERK. (D-F): Quantification of the Western blots in (A-C) were conducted by densitometry and results are expressed relative to maximum (fold max) phosphorylation of pERK.
(B): A549 cells stimulated with 10 μM […] over 2 h. A549 cells pretreated with 0.1 μM P1pal-7 and stimulated with 10 μM […] (SEQ ID NO:30) for 5 min. Total ERK was used as a loading control.
Last, there has been a great deal of interest in understanding the mechanism of PAR1-mediated activation of MAP kinase cascade and PAR1-dependent cellular growth and differentiation, proliferation and gene transcription. […] The effects of i1 versus i3 PAR1 pepducins on ERK1/2 activation were examined in the A549 lung adenocarcinoma cell line. […] Inhibition experiments with a range of pepducin concentrations (0.1-3 μM) were conducted. […] The […] (SEQ ID NO:30) peptide gave a rapid and transient ERK1/2 phosphorylation signal that peaked at 5-15 min after stimulation. […] To determine the specificity of the PAR1 pepducin inhibitors, their effects on the closely related PAR2 and PAR4 receptors were also tested.

[3] = target: T1, PAR1; assay: Migration of primary patient lung tumor cells; assay type: cell-based; design: endogenous in cells; host or cells: A549, HOP62, H1299, H522, H226, HOP92 lung carcinoma lines
Experimental: FIG. 12 illustrates that PAR1 is a promigratory factor in lung cancer cells. (A-F): Inhibition of lung cancer migration in adenocarcinomas A549, HOP62, H1299 and H522, H226 squamous, and HOP92 large cell using PAR1 pepducins. Pepducins at […] (P1pal-7, P1pal-10S, P1pal-i1-11, or negative control P1pal-19EE) were added to the lower well. (G): Cell from primary lung tumors or nonmalignant control were pretreated with PAR1 pepducins and migration was determined (*P<0.05, **P<0.01).
Further experiments were carried out to determine whether migration of the primary carcinoma cell lines isolated from lung tumors could be inhibited by PAR1 pepducins (FIG. 12G). […] Likewise, the RWJ-56110 small-molecule antagonist of PAR1 (Andrade-Gordon, et al., Proc. Natl Acad Sci USA, 96 (1999), pp. 12257-12262) suppressed up to 55% of the migration of primary lung tumor cells toward NIH-3T3 conditioned media. The PAR1 antagonist pepducin P1pal-7 and P1pal-i1-11 had no effect on the low-expressing PAR1 cell line derived from benign lung tissue, which migrated poorly (FIG. 12G).

[4] = Pharmacokinetics of PAR1 pepducins in CF-1 mice, plasma LC/MS/MS; assay type: in vivo, mouse; details: for Cmax: read-out: Peak plasma level
Experimental: FIG. 14 illustrates pharmacokinetics of PAR1 pepducins. (A): CF-1 mice were injected subcutaneously with P1pal-7 (3 mg/kg, open circles), P1pal-7 (10 mg/kg, closed circles), P1pal-10S (10 mg/kg, gray circles), or P1pal-i1-11 (10 mg/kg, open squares) in 20% dimethyl sulfoxide and blood was collected at indicated time points (n=3). Pepducin levels in plasma were quantified with LC/MS/MS. (B): Daily (D1 to D6) plasma levels of P1pal-7 after subcutaneous injection of 10 mg/kg P1pal-7 were measured at 1 hour (open circles) and 24 hours (open squares).
Pharmacokinetics of plasma levels of P1pal-7, P1pal-10S, and P1pal-i1-11 at 30 minutes, and at 1, 2, 4, 6, 8, and 16 hours was measured by LC/MS/MS to determine steady-state pepducin drug levels and the rate of elimination from mice. Subcutaneous injections of P1pal-7 (3 mg/kg or 10 mg/kg) into wild-type CF-1 mice (25 to 30 g) was followed by blood collection at various time points from the vena cava. […] Residual P1pal-7 levels were 10 nmol/L at the 16-hour time point. After the 4-hour plateau, the elimination rate was linear from 4 to 16 hours. The peak plasma level of 3 mg/kg P1pal-7 reached 0.6 μmol/L at 2 hours and elimination was linear between 2 hours and 16 hours. P1pal-10S (10 mg/kg) gave similar peak plasma level of 1.0 μmol/L as P1pal-7 (10 mg/kg) at 1 hour.
Lastly, the peak plasma level of P1pal-7 (10 mg/kg) was measured before and 1 hour after once-daily subcutaneous injection over 6 days to determine whether the peak plasma levels were consistent on daily administration.

[5] = test system: VEGF-A production; assay: Thrombin-dependent VEGF-A production in A549 cells (ELISA); assay type: cell-based, human; details: A549, 18 hours thrombin treatment
Experimental: as §1
Because the i3-based P1pal-7 pepducin had similar efficacy as Avastin in suppressing lung tumor growth of A549 xenografts, VEGF-A production was measured in the A549 tumor cells after 18 hours thrombin treatment. […] Unlike in ovarian cancer, no increase was found in PAR1-mediated IL-8 production in A549 cells, consistent with the observed lack of efficacy of CXCR1/2 pepducins in the A549 xenograft models. These xenograft data provide support for the role of a novel PAR1-ERK1/2-VEGF paracrine pathway that is an effective therapeutic target in the A549 adenocarcinoma lung cancer model.

[6] = test system: A549, HOP62, and HOP92 lung carcinoma cell lines; assay: Cytotoxicity/cell viability of lung carcinoma cells (MIT assay); assay type: cell-based, human; details: 3-day period

| Block of PRSFLLRN-induced phospho-ERK signal ([2]; 0.1 μM pepducin, 10 μM PRSFLLRN, 5 min, A549) | Effect on thrombin-induced ERK1/2 phosphorylation ([2]; A549 cells, pepducin 0.1-3 μM) | Effect on migration of low-expressing PAR1 cell line derived from benign lung tissue [3] | Duration of peak plasma level ([4]; 10 mg/kg s.c.) | Cmax ([4]; CF-1, mouse, plasma, sc, 3 mg/kg s.c.) | level at time molar at 6 h ([4]; CF-1, mouse, plasma, sc, 10 mg/kg s.c., read-out: Plasma level at the 6-hour time point) | level at time molar at 16 h ([4]; CF-1, mouse, plasma, sc, 10 mg/kg s.c., read-out: Residual plasma level at the 16-hour time point) | Accumulation in plasma after daily dosing ([4]; daily subcutaneous dosing, mouse) | Cmax ([4]; mouse, plasma, sc, 10 mg/kg s.c., CF-1 mice) | Inhibition of migration of primary lung tumor cells ([3]; primary lung tumors) | Compound | Inhibition of tumor progression/growth (final tumor volume vs vehicle) [1] | Effect on thrombin-dependent VEGF-A production [5] | Sensitivity of A549 cells (cytotoxicity) [6] |
| --- | --- | --- | --- | --- | --- | --- | --- | --- | --- | --- | --- | --- | --- |
| completely block | complete inhibition | no effect | 4 h | 600 nM | 200 nM | 10 nM | does not accumulate in plasma | 1100 nM | – | CCCCCCCCCCCCCCCC(=O)N[C@@H](CCCCN)C(=O)N[C@@H](CCCCN)C(=O)N[C@@H](CO)C(=O)N[C@@H](CCCNC(=N)N)C(=O)N[C@@H](C)C(=O)N[C@@H](CC(C)C)C(=O)N[C@@H](Cc1ccccc1)C(N)=O [P1pal-7] (Palmitoyl-KKSRALF-NH2) | 75% | completely blocked | most sensitive |
| – | – | – | – | – | – | – | – | – | up to 55% | NCC[C@H](NC(=O)[C@H](Cc1ccc(F)c(F)c1)NC(=O)Nc1ccc2c(CN3CCCC3)cn(Cc3c(Cl)cccc3Cl)c2c1)C(=O)NCc1ccccc1 [RWJ-56110, reference compound] | – | – | – |
